Laboratory results published in patent US9199200B2, “Submerged membrane bioreactor system and biological methods for removing bisphenol compounds from municipal wastewater” (Centre de Recherche Industrielle de Québec (CRIQ), priority 2010, dated 2015).

Tested on: biomass (activated sludge) of the SMBR
Assay: COD removal in submerged membrane bioreactor (SMBR) fed synthetic wastewater contaminated by BPA
Source text: According to another embodiment, a submerged membrane bioreactor system (SMBR) operated at the laboratory scale is represented in the diagram of FIG. 1. The pilot unit is comprised of ZEEWEED® (ZW-1) hollow-fibre membranes of 0.04 μm rated pore diameter and 0.047 m^2 total filtering surface area, assembled vertically. The membrane unit is provided by Zenon Environmental & Co (Oakville, ON, Canada). ZW-1 membrane, whose module contains 80 fibres of 20 cm length, may be either operated in closed loop or in continuous mode of operation, through a stirred 6 L tank of 19.1 cm water high. Filtration may be achieved by drawing water through the membrane under a slight vacuum generated by a peristaltic pump (11) and measured by a manometer (10) located just after the membrane on the aspiration line. Air may be supplied through an extended aeration tube located inside the membrane module and also used to attach it vertically. The filtration of the effluent may be carried out intermittently (5 min of filtration followed by 30 s of pause) but air should be continuously injected in the SMBR system. An oxygen probe (5) may be connected to an oxymeter and installed in the bioreactor tank to measure dissolved oxygen concentration. The air flow-rate may be measured using a flow-meter (17). pH and temperature can also be measured during the experiments by using pH (8) and temperature (9) probes installed in the bioreactor tank.
According to some embodiments of the present invention, the SMBR system may be seeded by activated sludge collected from any suitable municipal wastewater treatment plant. The first step consists in developing the biomass by using a synthetic wastewater of a known composition carried out according known techniques. For example, the initial biomass may be developed using glucose as an organic substrate (400-2000 mg/L of COD), although any other suitable sources of carbon may be employed as organic substrates, for example sodium acetate or peptone. The biomass is developed over a period of time suitable to obtain a sufficiently concentrated biomass. […]
According to an embodiment, the biomass may be acclimatized in oxidizing the bisphenol compound over of period of time sufficient to obtain a biomass capable of oxidizing said bisphenol compound. […] It is worth noting that, during both successive stages (biomass development and biomass acclimatization), the performance of the SMBR was evaluated by the measurements of COD. […]
During the experimental work, samples are taken for different analyses. […] BPA is also analyzed using liquid chromatography mass spectrometer (LC-MS/MS) after extraction and purification on a solid phase. […]

Compound: CC(C)(c1ccc(O)cc1)c1ccc(O)cc1 [BPA, 2,2-Bis(4-hydroxyphenyl)propane]
- BPA concentration at the entry of the SMBR from which foam is observed in the mixed liquor (perturbation in the bacterial activity) (14 g VSS/L, HRT 6 h): ≥ 25 mg/L
- Volumetric loading at which BPA became toxic for the bacterial activity (SMBR, around 5.0 mg/L BPA): 21.6 g BPA/m^3/d
- Limit of toxicity, organic loading (SMBR, at 25 mg BPA/L): 7.71 g BPA/kg VSS/d
- Limit of toxicity, volumetric loading (SMBR, at 25 mg BPA/L): about 108 g BPA/m^3/d
